Calls of active or inactive are those of the source. No cut-off for these calls is given here.
Experiments:
[1] = target: T1, GABA-A receptor; alpha-1/beta-2/gamma-2 (Rattus norvegicus) (UniProt P18508+P62813+P63138); experiment: Percent stimulation of Cl- current in Xenopus laevis oocytes expressing rat GABA-A alpha-1-beta-2-gamma-2 subunits at 100 uM; type: functional, cell-based; details: Oocyte
[2] = target: T2, GABA-A receptor; anion channel (Rattus norvegicus) (UniProt O09028+P15431+P18506+P18508+P19969+P20236+P23574+P23576+P28471+P28473+P30191+P62813+P63079+P63138+Q91ZM7+Q9ES14); experiment: In vitro displacement of [3H]muscimol from Gamma-aminobutyric acid A receptor of rat brain membranes, slight stimulation activity; type: cell membranes; details: Membrane
[3] = target: T2, GABA-A receptor; anion channel (Rattus norvegicus); experiment: (§1) Displacement of [3H]flunitrazepam from GABA-A receptor of rat cerebellum; type: tissue-based; design: concentration or dose not given beside the values
[4] = target: T2, GABA-A receptor; anion channel (Rattus norvegicus); experiment: (§2) Displacement of [3H]flunitrazepam from GABA-A receptor of rat forebrain; design: concentration or dose not given beside the values
[5] = target: T2, GABA-A receptor; anion channel (Rattus norvegicus); experiment: In vitro displacement of [35S]TBPS from Gamma-aminobutyric acid A receptor of rat brain membranes; type: cell membranes; design: concentration or dose not given beside the values; details: Membrane
[6] = target: T2, GABA-A receptor; anion channel (Rattus norvegicus); experiment: In vitro displacement of [3H]muscimol from Gamma-aminobutyric acid A receptor of rat brain membranes; type: cell membranes; details: Membrane
[7] = target: T2, GABA-A receptor; anion channel (Rattus norvegicus); experiment: In vitro displacement of [3H]muscimol from Gamma-aminobutyric acid A receptor of rat brain membranes (15% stimulation); type: cell membranes; details: Membrane
[8] = target: GABA-A receptor; anion channel; experiment: as §1; type: tissue-based
[9] = target: GABA-A receptor; anion channel; experiment: as §2
[10] = target: T2, GABA-A receptor; anion channel (Rattus norvegicus); experiment: In vitro displacement of [3H]muscimol from Gamma-aminobutyric acid A receptor of rat brain membranes, range 5-10% stimulation; type: cell membranes; details: Membrane
[11] = target: T1, GABA-A receptor; alpha-1/beta-2/gamma-2 (Rattus norvegicus); experiment: Percent stimulation of 5-alpha-pregnan-3-alpha-ol-20-one elicited Cl- current in Xenopus laevis oocytes expressing rat GABA-A alpha-1-beta-2-gamma-2 subunits at 30 uM; type: functional, cell-based; details: Oocyte
[12] = target: T1, GABA-A receptor; alpha-1/beta-2/gamma-2 (Rattus norvegicus); experiment: Percent stimulation of pentobarbital elicited Cl- current in Xenopus laevis oocytes expressing rat GABA-A alpha-1-beta-2-gamma-2 subunits at 30 uM; type: functional, cell-based; details: Oocyte

Structure (SMILES) | Stimulation [1] [%] | Displacement [2] | Displacement [3] [%] | Displacement [4] [%] | Displacement [5] [%] | Displacement [6] [%] | Displacement [7] [%] | IC50 [8] [nM] | IC50 [9] [nM] | Displacement [10] [%] | Stimulation [11] [%] | Stimulation [12] [%]
CN(C)S(=O)(=O)N1CCc2ccccc2[C@@H]1[C@H]1CCC(=O)O1 | 62 | inactive | 20 | 20 | 0 | – | – | – | – | – | – | –
O=C1CC[C@H]([C@H]2c3ccccc3CCN2S(=O)(=O)c2ccc(C(F)(F)F)cc2)O1 | 90 | – | 42 | 30 | 0 | 0 | – | – | – | – | – | –
O=C1CC[C@H]([C@H]2c3ccccc3CCN2S(=O)(=O)c2ccc3ccccc3c2)O1 | 118 | – | 14 | 9 | 0 | – | 15 | – | – | – | – | –
O=C1CC[C@H]([C@H]2c3ccccc3CCN2C(=O)OCc2ccccc2)O1 (racemic) | 351 | – | – | – | 0 | 0 | – | 60 | 160 | – | – | –
Cc1ccc(S(=O)(=O)N2CCc3ccccc3[C@@H]2[C@H]2CCC(=O)O2)cc1 (racemic) | 579 | – | 66 | 49 | 15 | – | – | – | – | 10 | – | –

Other lines, results leading:

Stimulation [1] [%] | Displacement [2] | Displacement [3] [%] | Displacement [4] [%] | Displacement [5] [%] | Displacement [6] [%] | Displacement [7] [%] | IC50 [8] [nM] | IC50 [9] [nM] | Displacement [10] [%] | Stimulation [11] [%] | Stimulation [12] [%] | Structure (SMILES)
32 | – | 26 | 20 | 0 | 0 | – | – | – | – | – | – | CS(=O)(=O)N1CCc2ccccc2[C@@H]1[C@H]1CCC(=O)O1
353 | – | 66 | 47 | 25 | 0 | – | – | – | – | – | – | O=C1CC[C@H]([C@H]2c3ccccc3CCN2S(=O)(=O)c2cccs2)O1
479 | inactive | 43 | 30 | 60 | – | – | – | – | – | – | – | O=C1CC[C@H]([C@H]2c3ccccc3CCN2S(=O)(=O)c2ccc(Cl)cc2)O1 (racemic)
423 | inactive | 74 | 66 | 50 | – | – | – | – | – | – | – | O=C1CC[C@H]([C@H]2c3ccccc3CCN2S(=O)(=O)c2ccccc2)O1 (racemic)
859 | – | 67 | 49 | – | – | – | – | – | – | 644 | 588 | Cc1ccc(S(=O)(=O)N2CCc3ccccc3[C@@H]2[C@H]2CCC(=O)O2)cc1 (stereo in doubt)
184 | – | 61 | 35 | – | – | – | – | – | – | – | – | Cc1ccc(S(=O)(=O)N2CCc3ccccc3[C@@H]2[C@H]2CCC(=O)O2)cc1 (stereo in doubt; 2c)
